Experimental data published in patent US5177082A, “Huperzines and analogs” (priority 1990, dated 1993).
Where “and” joins values, the source holds several entries; their conditions need not be identical. Equal entries are not always repeated. Entries after “also recorded” stand apart in the source; their conditions may differ. Where two headings read alike, the source gives them in different places.

Key:
[1] = system: memory functions of rats; assay: Memory function of preconditioned rats after 48 hours; format: in vivo, rat
Protocol: To evaluate the impact on the memory function, preconditioned animals going through 5 shock-free runs were used as learned animals. After 48 hours the drug-free (control) animals required 14.4±8.9 shocks to become learned.

[2] = system: myasthenia gravis; assay: Clinical curative effects in 128 cases with myasthenia gravis; format: in vivo, human
Protocol: 128 patients with correctly diagnosed myasthenia gravis were used in the trial.
Patients affected with myasthenia gravis (MG) with typical clinical symptoms which improved after using neostigmine were the subjects for testing and verification. […] It was generally used for at least ten days and each dosage was 0.4-0.5 mg. […] The injections were all given in the morning and on the morning prior to the injections anticholinesterase drugs were discontinued. Neither the patients nor the doctors knew which drug was being injected. Later, the symptoms, the duration of the improvements, if any, which were obtained by the drugs and the side effects were recorded. Based on these factors, the relative merits of the two drugs were established.
(+) (++) and (+++) was used as the standard for the seriousness of the symptoms, (+++) was the most serious.
1. Prolapse of eyelids: the tear width of the eye after use of the drug was measured. If there was an increase of 0.2 cm above that before use of the drug, then the effect was "+", if the increase was 0.4 cm then the effect was "++" and if the increase was 0.6 cm then the effect was "+++".
2. Impairment to eyeball activity: when the eyeball was basically fixed and immovable then it was "+++", those who had reoccuring major complaints and basically normal activities were "+" and those in an intermediate state were "++".
3. Difficulties in swallowing: when swallowing was still possible but there was a feeling of difficulty or there was slowing of the speed of the intake of food then the patient was treated as "+"; when the patient could swallow but it was very slow then the patient was "++"; when the patient was basically unable to swallow the rating was "+++".
4. Systemic myasthenia: patients who were able to walk but felt very exhausted were "+"; patients who were able to stand up and walk with difficulty a short distance in the ward or corridor were "++"; and patients who could not get out of bed were "+++".

[3] = system: Rats; settings: rat, in vivo
[4] = system: Fetus of Pregnant Mice; settings: mouse, in vivo
Source text: […]. […] The latter produced various types of externally observed deformities: short tails (44/97), short and no tails (18/97), back legs reversed (13/97), open eyes (7/97), exposed brains and spina bifida (1/97), sunken noses (1/97) and cleft palates (39/40). […].

[5] = system: Sciatic Nerve/Tibialis Muscle Preparation; assay: Anesthetized rabbit sciatic nerve/tibialis muscle preparation; format: in vivo; settings: rabbits
Protocol: Anesthesized Rat and Rabbit Sciatic Nerve/Tibialis Muscle Preparation
Anesthesia was produced in rats by ip injections of 30 mg/kg of pentobarbital and in rabbits by iv injections of 1 g/kg of urethane. Electric stimulation of the periphery of the sciatic nerve (5-10 V, 0.5 ms, 1 c/10 s) caused tibialis contraction which was recorded on smoked paper.

C/C=C1\[C@H]2C=C(C)C[C@]1(N)c1ccc(=O)[nH]c1C2 [Huperzine A, (5R, 9R, 11E)-5-amino-11-ethylidene-5,6,9,10-tetrahydro-7-methyl-5,9-methanocycloocta[b]pyridin-2(1H)-one]
shocks required to achieve the learned state (memory) ([1]; 0.03 mg/kg, ip, after 48 hours): 6.8±7.2 shocks
memory functions (Y-maze and brightness discrimination test) ([1]; normal male rats, 1/138 of the LD50 dosage): can strengthen the memory functions
initial effect within 15-30 minutes, % ([2]; 127 cases): 85.03%
initial effect within 15-30 minutes, No. of Cases ([2]; 127 cases): 108 cases
optimal curative effect within 45-60 minutes, % ([2]; 127 cases): 51.18%
optimal curative effect within 45-60 minutes, No. of Cases ([2]; 127 cases): 65 cases
time of maximal effect, longest ([2]; 127 cases): 240 min
time of maximal effect, shortest ([2]; 127 cases): 18 min
initial effect time, average ([2]; X ± SD, 127 cases): 21.92 ± 19.56 min and 21.92 min
time of maximal effect, average ([2]; X ± SD, 127 cases): 50.34 ± 25.65 min and 50.34 min
average action time among the 40 cases ([2]; cases exceeding 6 hours): 10.42 ± 5.80 h
longest action time among the 40 cases ([2]; cases exceeding 6 hours): 24 h
shortest action time among the 40 cases ([2]; cases exceeding 6 hours): 6 h
sustaining time of effect, shortest ([2]; eye muscle type): 0.66 h
action time exceeded 6 hours, % ([2]; human, in vivo): 31.64%
action time exceeded 6 hours, cases ([2]; human, in vivo): 40 cases
action time reached 4-6 hours, % ([2]; human, in vivo): 34.64%
action time reached 4-6 hours, cases ([2]; human, in vivo): 44 cases
average action time ([2]; human, in vivo): 5.94 ± 4.92 h
cases with marked effects ([2]; human, in vivo): 71 cases
cases with marked effects, % ([2]; human, in vivo): 55.46%
initial effect time, longest ([2]; im injection): 222 min
physical symptom initial improvement time, longest ([2]; im injection): 3.7 h
physical symptom initial improvement time, shortest ([2]; im injection): 10 min
effect on myasthenia gravis condition ([2]; im injection, 0.4 mg): effective anticholinesterase drug for treating myasthenia gravis; also recorded: able to definitely improve the myasthenia gravis condition
cases rated effective ([2]; not marked): 56 cases
cases rated effective, % ([2]; not marked): 43.75%
cases for which drug was effective ([2]; of 128): 127 cases
cases for which drug was effective, % ([2]; of 128): 99.21%
sustaining time of effect, longest ([2]; systemic and eye muscle type): 24 h
Toxic Strength [3]: 1.00
number of embryo absorptions and stillborn fetuses vs control [4]: markedly greater than those of the control group
abnormal embryos ([4]; ip): Neither of the two methods of giving the drug resulted in abnormal embryos
Body length of fetus ([4]; ip, 0.019 mg/kg): 2.2 ± 0.3 cm
Body weight of fetus ([4]; ip, 0.019 mg/kg): 1.24 ± 0.22 g
Number absorbed ([4]; ip, 0.019 mg/kg): 1.0 ± 1.7
Number of fetuses ([4]; ip, 0.019 mg/kg): 8 ± 3
number of stillbirths ([4]; ip, 0.019 mg/kg): 0.22 ± 0.44
Body length of fetus ([4]; ip, 0.038 mg/kg): 2.2 ± 0.3 cm
Body weight of fetus ([4]; ip, 0.038 mg/kg): 1.2 ± 0.2 g
Number absorbed ([4]; ip, 0.038 mg/kg): 0.5 ± 0.8
Number of fetuses ([4]; ip, 0.038 mg/kg): 8 ± 2
number of stillbirths ([4]; ip, 0.038 mg/kg): 0.22 ± 0.44
Body length of fetus ([4]; ip, 0.08 mg/kg): 2.3 ± 0.1 cm
Body weight of fetus ([4]; ip, 0.08 mg/kg): 1.2 ± 0.1 g
Number absorbed ([4]; ip, 0.08 mg/kg): 0
Number of fetuses ([4]; ip, 0.08 mg/kg): 9 ± 2
number of stillbirths ([4]; ip, 0.08 mg/kg): 0.17 ± 0.39
Body length of fetus ([4]; ip, 0.19 mg/kg): 2.1 ± 0.2 cm
Body weight of fetus ([4]; ip, 0.19 mg/kg): 1.0 ± 0.2 g
Number absorbed ([4]; ip, 0.19 mg/kg): 0.73 ± 1.7
Number of fetuses ([4]; ip, 0.19 mg/kg): 9 ± 4
number of stillbirths ([4]; ip, 0.19 mg/kg): 0.13 ± 0.35
Body length of fetus ([4]; ip, 0.38 mg/kg): 2.0 ± 0.3 cm
Body weight of fetus ([4]; ip, 0.38 mg/kg): 1.1 ± 0.3 g
Number absorbed ([4]; ip, 0.38 mg/kg): 2.1 ± 2.4
Number of fetuses ([4]; ip, 0.38 mg/kg): 6 ± 4
number of stillbirths ([4]; ip, 0.38 mg/kg): 0.8 ± 1.1
Body length of fetus ([4]; ip, 0.39 mg/kg): 1.9 ± 0.1 cm
Body weight of fetus ([4]; ip, 0.39 mg/kg): 0.95 ± 0.18 g
Number absorbed ([4]; ip, 0.39 mg/kg): 0.75 ± 1.0
Number of fetuses ([4]; ip, 0.39 mg/kg): 8 ± 4
number of stillbirths ([4]; ip, 0.39 mg/kg): 0.9 ± 1.1
minimal effective dose ([5]; Oryctolagus cuniculus, iv, read-out: Lowest Effective Dosage for Enhancing Muscle Contraction): 0.03 mg/kg
Strength of Effect ([5]; galanthamine = 1.0): 16.6
effect on electrically stimulated muscle contraction ([5]; iv (Huperzine A 30 μg/kg)): enhancement of the amplitude of the electrically stimulated muscle contraction
Strength of Effect ([5]; physostigmine = 1.0): 4
